Data as given in ChEMBL document CHEMBL1201862, “PubChem BioAssay data set” (2004).
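Dose response: 5 concentrations. Exposure: 48 h. Format: 96-well plates. Endpoint: linear interpolation; highest concentration if not reached. GI50 = concentration required for 50% inhibition of growth.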 Calls of active or inactive are those of the source. Rule as the data show it: active = GI50 up to about 1.1 µM and inactive = higher.

How the values were obtained:
Assay in all cases: DTP human tumour cell line panel, 48 h
[1] = test system: A549
[2] = test system: COLO 205
[3] = test system: EKVX
[4] = test system: HOP-92
[5] = test system: IGROV-1
[6] = test system: K562
[7] = test system: M14
[8] = test system: NCI-H226
[9] = test system: OVCAR-4
[10] = test system: RPMI-8226
[11] = test system: SF-268
[12] = test system: SK-OV-3
[13] = test system: SNB-19
[14] = test system: SNB-75
[15] = test system: SR
[16] = test system: TK-10
[17] = test system: Hs-578T
[18] = test system: MDA-MB-435
[19] = test system: PC-3
[20] = test system: T47D

SMILES | GI50 [1] | GI50 [2] | GI50 [3] | GI50 [4] | GI50 [5] | GI50 [6] | GI50 [7] | GI50 [8] | GI50 [9] | GI50 [10] | GI50 [11] | GI50 [12] | GI50 [13] | GI50 [14] | GI50 [15] | GI50 [16] | GI50 [17] | GI50 [18] | GI50 [19] | GI50 [20]
O=C(c1cc(O)ccc1O)c1ccccc1C(Cl)(Cl)Cl | > 100 µM (inactive) | > 100 µM (inactive) | 75.5 µM (inactive) | 38.8 µM (inactive) | > 100 µM (inactive) | 61.8 µM (inactive) | 88.7 µM (inactive) | > 100 µM (inactive) | 68.5 µM (inactive) | 47.5 µM (inactive) | > 100 µM (inactive) | > 100 µM (inactive) | > 100 µM (inactive) | > 100 µM (inactive) | 71.8 µM (inactive) | > 100 µM (inactive) | – | – | – | –
CN1[C@@H]2CCCC[C@H]2N(C)P1(=O)C(O)/C=C/c1ccccc1 (stereo not given in full) | > 100 µM (inactive) | > 100 µM (inactive) | > 100 µM (inactive) | > 100 µM (inactive) | > 100 µM (inactive) | > 100 µM (inactive) | > 100 µM (inactive) | > 100 µM (inactive) | > 100 µM (inactive) | > 100 µM (inactive) | > 100 µM (inactive) | > 100 µM (inactive) | > 100 µM (inactive) | > 100 µM (inactive) | – | > 100 µM (inactive) | > 100 µM (inactive) | > 100 µM (inactive) | > 100 µM (inactive) | > 100 µM (inactive)
Fc1ccc2c3c([nH]c2c1)CCNC3 | > 100 µM (inactive) | > 100 µM (inactive) | > 100 µM (inactive) | 29.5 µM (inactive) | > 100 µM (inactive) | > 100 µM (inactive) | > 100 µM (inactive) | 59.6 µM (inactive) | > 100 µM (inactive) | > 100 µM (inactive) | > 100 µM (inactive) | > 100 µM (inactive) | > 100 µM (inactive) | > 100 µM (inactive) | > 100 µM (inactive) | > 100 µM (inactive) | > 100 µM (inactive) | 77.1 µM (inactive) | – | > 100 µM (inactive)
COc1ccc(C2C3=C(COC3=O)Oc3cc4c(cc32)OCO4)cc1OC (stereo not given) | 1.27 µM (inactive) | 0.879 µM (active) | 3.61 µM (inactive) | 39.4 µM (inactive) | 0.713 µM (active) | 0.337 µM (active) | 1.52 µM (inactive) | 4.65 µM (inactive) | 37.9 µM (inactive) | 0.447 µM (active) | 6.17 µM (inactive) | 0.75 µM (active) | 0.716 µM (active) | 1.82 µM (inactive) | – | 12.1 µM (inactive) | 0.408 µM (active) | 0.123 µM (active) | 0.521 µM (active) | 10.1 µM (inactive)
COC(=O)CN1C(=O)C2(C(=O)OC)OC1(c1ccc([N+](=O)[O-])cc1)C1C(=O)N(c3ccccc3)C(=O)C12 (stereo not given) | > 100 µM (inactive) | > 100 µM (inactive) | > 100 µM (inactive) | – | > 100 µM (inactive) | – | > 100 µM (inactive) | > 100 µM (inactive) | > 100 µM (inactive) | – | > 100 µM (inactive) | > 100 µM (inactive) | > 100 µM (inactive) | > 100 µM (inactive) | – | > 100 µM (inactive) | > 100 µM (inactive) | > 100 µM (inactive) | > 100 µM (inactive) | > 100 µM (inactive)
O=S1(=O)OCCOS(=O)(=O)C1I | > 100 µM (inactive) | > 100 µM (inactive) | > 100 µM (inactive) | > 100 µM (inactive) | > 100 µM (inactive) | > 100 µM (inactive) | > 100 µM (inactive) | 28.6 µM (inactive) | > 100 µM (inactive) | > 100 µM (inactive) | 92.5 µM (inactive) | > 100 µM (inactive) | 77.4 µM (inactive) | > 100 µM (inactive) | 91.8 µM (inactive) | > 100 µM (inactive) | – | – | – | –
CC(=O)OCC12C(OC(C)=O)C[C@@H](C)C3(CC(c4ccoc4)OC3=O)C1CCC(OC(C)=O)C21CO1 (stereo not given in full) | > 100 µM (inactive) | > 100 µM (inactive) | > 100 µM (inactive) | > 100 µM (inactive) | > 100 µM (inactive) | > 100 µM (inactive) | > 100 µM (inactive) | > 100 µM (inactive) | > 100 µM (inactive) | > 100 µM (inactive) | > 100 µM (inactive) | > 100 µM (inactive) | > 100 µM (inactive) | > 100 µM (inactive) | – | > 100 µM (inactive) | > 100 µM (inactive) | > 100 µM (inactive) | > 100 µM (inactive) | > 100 µM (inactive)
CC(=O)Oc1ccccc1C(=O)O [ASPIRIN] | > 100 µM (inactive) | > 100 µM (inactive) | > 100 µM (inactive) | – | – | > 100 µM (inactive) | > 100 µM (inactive) | > 100 µM (inactive) | > 100 µM (inactive) | > 100 µM (inactive) | > 100 µM (inactive) | > 100 µM (inactive) | > 100 µM (inactive) | > 100 µM (inactive) | > 100 µM (inactive) | > 100 µM (inactive) | – | > 100 µM (inactive) | > 100 µM (inactive) | > 100 µM (inactive)
CCN(CC)C1=Nc2ccccc2-n2c(C)cnc2C1 | > 100 µM (inactive) | > 100 µM (inactive) | > 100 µM (inactive) | > 100 µM (inactive) | > 100 µM (inactive) | > 100 µM (inactive) | > 100 µM (inactive) | > 100 µM (inactive) | > 100 µM (inactive) | 95.5 µM (inactive) | > 100 µM (inactive) | > 100 µM (inactive) | > 100 µM (inactive) | > 100 µM (inactive) | – | > 100 µM (inactive) | > 100 µM (inactive) | > 100 µM (inactive) | > 100 µM (inactive) | > 100 µM (inactive)
O=C1NC(Cc2ccccc2)C(=O)N2CCCC12 (stereo not given) | > 100 µM (inactive) | > 100 µM (inactive) | > 100 µM (inactive) | > 100 µM (inactive) | > 100 µM (inactive) | > 100 µM (inactive) | > 100 µM (inactive) | > 100 µM (inactive) | > 100 µM (inactive) | > 100 µM (inactive) | > 100 µM (inactive) | > 100 µM (inactive) | > 100 µM (inactive) | > 100 µM (inactive) | > 100 µM (inactive) | > 100 µM (inactive) | – | – | – | –
CCOC(=O)/C(=C\NC(C)(C)C)c1nc2ccccc2[nH]1 | 29.4 µM (inactive) | 16 µM (inactive) | 12.2 µM (inactive) | 25.2 µM (inactive) | 22 µM (inactive) | – | 20.1 µM (inactive) | 22.9 µM (inactive) | 24.5 µM (inactive) | 17.2 µM (inactive) | 23.7 µM (inactive) | 30.1 µM (inactive) | 39.3 µM (inactive) | 23.7 µM (inactive) | 12.7 µM (inactive) | 14 µM (inactive) | 19.6 µM (inactive) | 20 µM (inactive) | – | –
COc1cccc(NC(=O)CC(=O)N2N=C(N(CCC#N)c3ccc(Cl)cc3)CC2c2ccccc2)c1 (stereo not given) | > 100 µM (inactive) | > 100 µM (inactive) | > 100 µM (inactive) | > 100 µM (inactive) | > 100 µM (inactive) | > 100 µM (inactive) | > 100 µM (inactive) | > 100 µM (inactive) | > 100 µM (inactive) | > 100 µM (inactive) | > 100 µM (inactive) | > 100 µM (inactive) | > 100 µM (inactive) | > 100 µM (inactive) | > 100 µM (inactive) | > 100 µM (inactive) | – | – | – | –
COC(=O)C1=C(C)NC2(C)OC(C)(O)C(C(C)=O)C12C(C)=O (stereo not given) | > 100 µM (inactive) | 46.8 µM (inactive) | > 100 µM (inactive) | 33.2 µM (inactive) | > 100 µM (inactive) | > 100 µM (inactive) | 60.5 µM (inactive) | 16.5 µM (inactive) | > 100 µM (inactive) | 61.1 µM (inactive) | 28.1 µM (inactive) | 28.5 µM (inactive) | > 100 µM (inactive) | 71.8 µM (inactive) | – | > 100 µM (inactive) | 25.4 µM (inactive) | > 100 µM (inactive) | 13.9 µM (inactive) | > 100 µM (inactive)
N#CC1(C#N)C(c2ccccc2)C=CC12OCCCO2 (stereo not given) | 88.9 µM (inactive) | 26.2 µM (inactive) | 59.3 µM (inactive) | 30.5 µM (inactive) | 60.5 µM (inactive) | 30.6 µM (inactive) | 29.7 µM (inactive) | 78.7 µM (inactive) | 59.4 µM (inactive) | 27.7 µM (inactive) | 28.4 µM (inactive) | > 100 µM (inactive) | > 100 µM (inactive) | 42.9 µM (inactive) | 27 µM (inactive) | 48.9 µM (inactive) | – | – | – | –
CC(C)(C)OC(=O)NCCCCCCC(=O)Cc1ccccc1 | > 100 µM (inactive) | 75.2 µM (inactive) | > 100 µM (inactive) | > 100 µM (inactive) | > 100 µM (inactive) | > 100 µM (inactive) | > 100 µM (inactive) | > 100 µM (inactive) | > 100 µM (inactive) | > 100 µM (inactive) | > 100 µM (inactive) | > 100 µM (inactive) | > 100 µM (inactive) | > 100 µM (inactive) | > 100 µM (inactive) | > 100 µM (inactive) | – | > 100 µM (inactive) | > 100 µM (inactive) | > 100 µM (inactive)
COc1ccccc1NC(=O)O/N=C(/Cl)C(C)C | 18.2 µM (inactive) | 2.4 µM (inactive) | 16.1 µM (inactive) | – | 16.7 µM (inactive) | 2.24 µM (inactive) | 5.9 µM (inactive) | 20.8 µM (inactive) | – | 2.1 µM (inactive) | 16.6 µM (inactive) | 18.7 µM (inactive) | 30.9 µM (inactive) | 0.889 µM (active) | 1.91 µM (inactive) | 13.6 µM (inactive) | 24.9 µM (inactive) | – | 18.5 µM (inactive) | 21 µM (inactive)
